# Experimental data from article PMC8351955, “Targeting Mycobacterium tuberculosis response to environmental cues for the development of effective antitubercular drugs” (PLoS Biology, 2021).
# Where “and” joins values, the source holds several entries; their conditions need not be identical. Equal values may be shown once. Read-outs that look alike come from different tables or passages of the source.
# Tests used:
# CYP2C19 = CYP2C19 (Homo sapiens, UniProt P33261); test: Human cytochrome P450 inhibition, 2C19; format: in vitro ADME; conditions: read-out: % inhibition of CYP 2C19
# Description: (§1) Assays examining mouse and human liver microsomal stability, kinetic aqueous solubility, mouse and human plasma protein binding and stability, and human cytochrome P450 inhibition characteristics of the compounds were run by BioDuro (San Diego, CA), using standard protocols as previously described [37]. hERG inhibition assays were also performed by BioDuro.
# Mtb = test: Mouse Mtb infection, C3HeB/FeJ model, oral C6; format: in vivo, C3HeB/FeJ mice; conditions: for CFU/ml: individual values
# Description: C3HeB/FeJ wild-type mice (The Jackson Laboratory) were infected intranasally with 10^3 CFUs of Mtb (35 μl), under light anesthesia with 2% isoflurane. […] The next day, the suspension was homogenized by bead beating with 5 mm steel beads in a TOMY microtube mixer (2 × 20 seconds) and stored at 4°C until use. […] Administration began at 2 or 6 weeks post-infection as indicated. At time of sacrifice, the left lobe and accessory right lobe of the lung were homogenized in PBS + 0.05% Tween 80 and serial dilutions plated on 7H10 agar plates with 100 μg/ml cycloheximide for bacterial load determination. The remaining 3 right lobes were fixed in 4% PFA in PBS. One lobe was used for histological analysis by standard hematoxylin and eosin (H&E) staining (Tufts Comparative Pathology Services). A Nikon Eclipse E400 with a SPOT insight color digital camera was used to image the histology samples.
# [1] = Vero cell toxicity assay (MTS); format: cell-based; conditions: African green monkey, Vero cells
# Description: Vero cells (African green monkey kidney epithelial cells; ATCC CCL-81) were maintained in DMEM + 10% FBS. For the cell toxicity assay, Vero cells were plated at 1 × 10^5 cells/well in a 96-well plate and incubated for 2 to 3 hours to allow cells to settle. The test compound was dissolved in DMSO at a final concentration of 12 mg/ml. The test compound solution was then added to plated cells, resulting in final test concentrations of 50 to 0.78 μg/ml, with each concentration tested at least in duplicate. To evaluate […] cell viability, 20 μl of a 1:20 MTS:PMS reagent (Promega CellTiter 96 AQueous nonradioactive cell proliferation assay kit) was added to each well after 72 hours of incubation at 37°C, and the plate then incubated for an additional 3 hours. Absorbance at 490 nm was read on a Molecular Devices SpectraMax M5 microplate reader. The CC50 (the minimal amount of compound that inhibited Vero cell growth by 50%) was extrapolated by plotting absorbance at 490 nm versus the concentration […].
# J774 cells = test: Intracellular drug accumulation assay in J774 cells (LC-MS); conditions: 24 hours
# CYP2D6 = CYP2D6 (Homo sapiens, UniProt P10635); test: Human cytochrome P450 inhibition, 2D6; format: in vitro ADME; conditions: read-out: % inhibition of CYP 2D6
# Description: as §1
# [2] = system: Mtb growth in J774 murine macrophage-like cells; test: microbe, parasite or virus in culture; format: cell-based, Mycobacterium tuberculosis; conditions: for NPI (Mtb growth in J774 cells), average: Fig 1F
# [3] = system: Mtb growth in J774 macrophage-like cells; test: J774 infection in 96-well plates, mKO fluorescence 6 days post-infection; format: cell-based, Mycobacterium tuberculosis; conditions: for % Growth: Fig. 2D, DMSO = 100
# Procedure, shortened: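 J774 cells infected with mKO-expressing log-phase Mtb (40 μl at OD600 = 0.2 per well) and treated with compound at 10 μM final (0.1% DMSO). mKO fluorescence (ex 543/em 565 nm) read at infection and 6 days later at 37 °C, 5% CO2; growth expressed relative to DMSO controls as 100%.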
# CYP2C9 = CYP2C9 (Homo sapiens, UniProt P11712); test: Human cytochrome P450 inhibition, 2C9; format: in vitro ADME; conditions: read-out: % inhibition of CYP 2C9
# Description: as §1
# [4] = Human liver microsomal stability; format: in vitro ADME; conditions: human liver microsomes; read-out: half-life (t1/2) in human liver microsomes
# [5] = system: CDC1551(rv1405c′::GFP) reporter Mtb strain; test: microbe, parasite or virus in culture; format: cell-based, Mycobacterium tuberculosis; conditions: for NPA - rv1405c'::GFP, average: Fig 1D
# Mouse plasma stability = format: in vitro ADME; conditions: 5-h incubation
# [6] = system: CDC1551(rv2390c′::GFP) reporter Mtb strain, response to high [Cl−]; test: microbe, parasite or virus in culture; format: cell-based, Mycobacterium tuberculosis
# Sequence of CYP2C9 (P11712 whole entry): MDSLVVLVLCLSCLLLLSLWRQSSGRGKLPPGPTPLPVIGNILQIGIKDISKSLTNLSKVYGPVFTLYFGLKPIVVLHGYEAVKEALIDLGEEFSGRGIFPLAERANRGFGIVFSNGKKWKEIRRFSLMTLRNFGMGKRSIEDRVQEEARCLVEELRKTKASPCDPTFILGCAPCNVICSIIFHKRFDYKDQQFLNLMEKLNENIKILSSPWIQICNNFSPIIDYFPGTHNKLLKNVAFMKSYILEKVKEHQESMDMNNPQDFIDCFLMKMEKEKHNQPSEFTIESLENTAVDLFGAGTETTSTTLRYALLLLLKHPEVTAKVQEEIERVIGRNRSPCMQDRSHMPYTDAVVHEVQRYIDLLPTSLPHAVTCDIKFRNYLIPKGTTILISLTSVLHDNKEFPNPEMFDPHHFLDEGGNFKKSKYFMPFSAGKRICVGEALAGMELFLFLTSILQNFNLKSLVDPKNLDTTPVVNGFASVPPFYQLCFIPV
# Sequence of CYP2D6 (P10635 whole entry): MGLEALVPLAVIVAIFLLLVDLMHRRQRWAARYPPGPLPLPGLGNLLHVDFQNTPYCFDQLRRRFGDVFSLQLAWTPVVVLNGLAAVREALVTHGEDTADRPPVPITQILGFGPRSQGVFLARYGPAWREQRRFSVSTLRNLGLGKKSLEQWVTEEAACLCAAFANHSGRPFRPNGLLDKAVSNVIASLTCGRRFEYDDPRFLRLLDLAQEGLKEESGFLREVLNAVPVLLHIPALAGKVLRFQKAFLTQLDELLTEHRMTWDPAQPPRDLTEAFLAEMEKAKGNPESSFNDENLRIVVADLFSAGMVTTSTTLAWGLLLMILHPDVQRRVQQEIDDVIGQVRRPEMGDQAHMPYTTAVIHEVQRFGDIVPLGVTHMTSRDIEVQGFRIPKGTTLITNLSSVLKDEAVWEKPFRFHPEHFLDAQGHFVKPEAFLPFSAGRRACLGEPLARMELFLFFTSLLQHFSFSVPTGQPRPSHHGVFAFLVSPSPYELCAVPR
# Sequence of CYP2C19 (P33261 whole entry): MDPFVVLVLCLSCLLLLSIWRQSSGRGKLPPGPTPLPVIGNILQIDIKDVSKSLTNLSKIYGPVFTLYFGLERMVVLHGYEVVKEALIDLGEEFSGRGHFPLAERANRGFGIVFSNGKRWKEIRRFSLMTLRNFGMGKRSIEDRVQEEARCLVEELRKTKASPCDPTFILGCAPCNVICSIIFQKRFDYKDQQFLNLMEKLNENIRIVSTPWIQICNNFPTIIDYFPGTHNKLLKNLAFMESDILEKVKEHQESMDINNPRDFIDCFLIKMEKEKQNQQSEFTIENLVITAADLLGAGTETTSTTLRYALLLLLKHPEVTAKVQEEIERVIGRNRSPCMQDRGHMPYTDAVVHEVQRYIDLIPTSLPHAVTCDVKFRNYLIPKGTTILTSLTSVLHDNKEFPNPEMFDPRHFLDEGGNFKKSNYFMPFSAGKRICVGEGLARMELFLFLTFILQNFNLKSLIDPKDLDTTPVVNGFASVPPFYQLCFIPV
compound,measurement,setting,value
"CCSc1ncc(CN2CCN(c3nc4ccccc4o3)CC2)cn1 [C6, 2-(4-((2-(ethylthio)pyrimidin-5-yl)methyl)piperazin-1-yl)benzo[d]oxazole]",inhibition at 10 µM,CYP2C19,30.3%
same,"Lung bacterial load, short-term infection model","Mtb; 250 mg/kg oral gavage 5 times a week for 2 weeks, started 2 weeks post-infection",significantly inhibited Mtb growth
same,"Lung bacterial load, longer-term infection model","Mtb; 250 mg/kg oral gavage for 2 or 4 weeks, started 6 weeks post-infection",significant decrease in bacterial load
same,"Lung histology, short-term infection model","Mtb; 250 mg/kg, 2-week treatment from 2 weeks post-infection",less cellular infiltration
same,"Lung histopathology, longer-term infection model","Mtb; 250 mg/kg, 2 or 4 weeks treatment from 6 weeks post-infection",improved histopathology
same,CFU/ml,"Mtb; Fig. 4A, 4 weeks (pre-treatment 2 weeks)",5260000 CFU/ml and 1940000 CFU/ml and 7340000 CFU/ml and 338000 CFU/ml and 3180000 CFU/ml and 1920000 CFU/ml and 1820000 CFU/ml and 13560000 CFU/ml
same,CFU/ml,"Mtb; Fig. 4C, 8 weeks (pre-treatment 6 weeks)",38000 CFU/ml and 860000 CFU/ml and 9200000 CFU/ml and 3340000 CFU/ml and 4100000 CFU/ml and 2340000 CFU/ml and 68000 CFU/ml and 304000 CFU/ml and 270000000 CFU/ml and 3980000 CFU/ml and 234000 CFU/ml and 64000 CFU/ml and 21800 CFU/ml and 62000 CFU/ml
same,CFU/ml,"Mtb; Fig. 4C, 10 weeks (pre-treatment 6 weeks)",338000 CFU/ml and 29000 CFU/ml and 2660 CFU/ml and 228000 CFU/ml and 188000 CFU/ml and 43000000 CFU/ml and 112000 CFU/ml and 17800000 CFU/ml and 926000 CFU/ml and 42800000 CFU/ml and 132000 CFU/ml and 118000 CFU/ml and 720000 CFU/ml
same,CC50 at 72 h,[1],> 50 µg/mL
same,Intracellular accumulation in J774 cells,J774 cells,dose-dependent accumulation
same,inhibition at 10 µM,CYP2D6,10.5%
same,"NPI (Mtb growth in J774 cells), average","[2]; 0.078125 µM, 5 µM rifampicin = 100% inhibition",-7.09%
same,"NPI (Mtb growth in J774 cells), average",[2]; 0.15625 µM,-2.13%
same,"NPI (Mtb growth in J774 cells), average",[2]; 0.3125 µM,-0.93%
same,"NPI (Mtb growth in J774 cells), average",[2]; 0.625 µM,-0.1%
same,"NPI (Mtb growth in J774 cells), average",[2]; 1.25 µM,17.45%
same,"NPI (Mtb growth in J774 cells), average",[2]; 2.5 µM,26.3%
same,"NPI (Mtb growth in J774 cells), average",[2]; 5 µM,38%
same,"NPI (Mtb growth in J774 cells), average",[2]; 10 µM,40.45%
same,"NPI (Mtb growth in J774 cells), average",[2]; 20 µM,53.6%
same,inhibition at 10 µM,"[2]; Mycobacterium tuberculosis, J774, 144 h, read-out: J774 tertiary assay % inhibition compared to Rif at 10 µM compound",40.5 ± 0.6%
same,inhibition at 20 µM,"[2]; Mycobacterium tuberculosis, J774, 144 h, read-out: J774 tertiary assay % inhibition compared to Rif at 20 µM compound",53.6 ± 2.7%
same,"% growth of Mtb in J774 cells, average","[3]; 10 μM compound, 6 days post-infection, DMSO = 100%, Fig 1H",40.8112%
same,Inhibition of Mtb growth in J774 cells,"[3]; 10 μM, 6 days post-infection",Mtb growth inhibition
same,% Growth,[3]; average of 4 replicates,56.2334%
same,% Growth,[3]; individual replicates,53.4835% and 56.5013% and 56.5506% and 58.3983%
same,inhibition at 10 µM,CYP2C9,25.7%
same,half-life,[4],37.6 min
same,"NPA - rv1405c'::GFP, average",[5]; 0.0390625 µM,91.7667%
same,"NPA - rv1405c'::GFP, average",[5]; 0.078125 µM,104.333%
same,"NPA - rv1405c'::GFP, average",[5]; 0.15625 µM,97.8333%
same,"NPA - rv1405c'::GFP, average",[5]; 0.3125 µM,95.1667%
same,"NPA - rv1405c'::GFP, average",[5]; 0.625 µM,93.7333%
same,"NPA - rv1405c'::GFP, average",[5]; 1.25 µM,103.333%
same,"NPA - rv1405c'::GFP, average",[5]; 2.5 µM,124.667%
same,"NPA - rv1405c'::GFP, average",[5]; 5 µM,141%
same,"NPA - rv1405c'::GFP, average",[5]; 10 µM,137.333%
same,"NPA - rv1405c'::GFP, average",[5]; 20 µM,161.5%
same,activity at 10 µM,"[5]; Mycobacterium tuberculosis, read-out: rv1405c'::GFP secondary assay NPA% at 10 µM compound",137 ± 15%
same,activity at 20 µM,"[5]; Mycobacterium tuberculosis, read-out: rv1405c'::GFP secondary assay NPA% at 20 µM compound",162 ± 3.5%
same,remaining at 5 h,Mouse plasma stability,> 99.9%
same,"NPA - rv2390c'::GFP, average","[6]; 0.0390625 µM, Fig 1C",83.3%
same,"NPA - rv2390c'::GFP, average","[6]; 0.078125 µM, Fig 1C",86.0333%
same,"NPA - rv2390c'::GFP, average","[6]; 0.15625 µM, Fig 1C",80.7667%
same,"NPA - rv2390c'::GFP, average","[6]; 0.3125 µM, Fig 1C",92.0333%
same,"NPA - rv2390c'::GFP, average","[6]; 0.625 µM, Fig 1C",91.4667%
same,"NPA - rv2390c'::GFP, average","[6]; 1.25 µM, Fig 1C",105.667%
same,"NPA - rv2390c'::GFP, average","[6]; 2.5 µM, Fig 1C",116.333%
same,"NPA - rv2390c'::GFP, average","[6]; 5 µM, Fig 1C",113%
same,"NPA - rv2390c'::GFP, average","[6]; 10 µM, Fig 1C",126.667%
same,"NPA - rv2390c'::GFP, average","[6]; 20 µM, Fig 1C",131%
same,activity at 10 µM,"[6]; Mycobacterium tuberculosis, 144 h, pH 6.4, […], DMSO positive control = 100%, read-out: Primary screen rv2390c'::GFP NPA%",164%
same,activity at 10 µM,"[6]; Mycobacterium tuberculosis, 144 h, 10 µM, pH 6.4, 250 mM NaCl, 6 days, read-out: rv2390c'::GFP validation assay NPA% at 10 µM compound",127 ± 1.5%
same,activity at 20 µM,"[6]; Mycobacterium tuberculosis, 144 h, 20 µM, pH 6.4, 250 mM NaCl, 6 days, read-out: rv2390c'::GFP validation assay NPA% at 20 µM compound",131 ± 3.6%
same,AC50,"[6]; Mycobacterium tuberculosis, 144 h, pH 6.4, 250 mM NaCl, 6 days, Fig 1C, read-out: AC50 (activatory concentration, 50%), rv2390c′::GFP",1800 nM
